The values that follow are results of earlier work, collected in patent US20110257262A1, “CRYSTALLINE INGENOL MEBUTATE” (LEO PHARMA A/S, priority 2010, published 2011).

The test system of data set [1] is skin cancer cells. The note with it: via rapid mitochondrial disruption and cell death by primary necrosis.
Data set [2] deals with normal cells. The note with it: compared with skin cancer cells.

With `C/C=C(/C)C(=O)O[C@H]1C(C)=C[C@]23C(=O)[C@@H](C=C(CO)[C@@H](O)[C@]12O)[C@H]1[C@@H](C[C@H]3C)C1(C)C` [Ingenol mebutate, (1aR,2S,5R,5aS,6S,8aS,9R,10aR)-5,5a-dihydroxy-4-(hydroxy-methyl)-1,1,7,9-tetramethyl-11-oxo-1a,2,5,5a,6,9,10,10a-octahydro-1H2,8a-methanocyclopenta[a]cyclopropa[e]cyclodecen-6-yl(2Z)-2-methylbut-2-enoate], the “toxicity for skin cancer cells” value in data set [1] is reported as “highly toxic”. In data set [2], the “sensitivity of normal cells” value is recorded as “less sensitive”.
